# Laboratory results reported in US20250009743A1, “METHODS OF TREATING CANCERS USING STING AGONISTS” (Dana-Farber Cancer Institute, Inc., priority 2021, published 2025).
# Assays:
# [1] = tested on: BP-sgSTING tumors; assay: BP-sgSTING tumor growth and survival in FVB mice; type: in vivo, mouse; conditions: olaparib 50 mg/kg i.p. q.d.
# Experimental: Primary mammary tumor cells for orthotopic injection were resuspended in serum-free DMEM containing 40% matrigel (Corning). 5×10^5 tumor cells in a total volume of 100 μL were injected orthotopically into the thoracic mammary fat pads of 8-week-old female FVB/NJ mice (The Jackson Laboratory). Tumor growth was examined by measuring the greatest longitudinal diameter (length) and the greatest transverse diameter (width) with digital calipers, and tumor volume was calculated by use of the modified ellipsoid formula (0.52×length×width2). Tumors were measured 2-3 times a week. All tumor measurements within single cohorts were performed by the same researcher. Tumor-bearing mice were randomized prior to start of treatment. Drug treatments were started when mean tumor volumes approximated 50-100 mm3. Mice were euthanized by CO2 inhalation when tumor volumes met humane endpoints described in the IACUC (20 mm diameter) protocols or upon severe health deterioration.
# Olaparib (MedChem, #HY-10162) was prepared by diluting 100 mg/l mL stocks in DMSO with 10% (2-Hydroxypropyl)-β-cyclodextrin (HPCD, MedChem, #101103) in PBS and administered immediately after drug preparation by intraperitoneal (i.p.) injection at a dose of 50 mg/kg body weight daily. DMXAA (Sigma, #D5817) was reconstituted at 10 mg/mL in 7.5% NaHCO3(Gibco). […]
# [2] = tested on: BP tumor cells; assay: Pro-inflammatory cytokine expression in BP tumor cells (RT-qPCR, IFNβ ELISA); type: cell-based, mouse; conditions: olaparib two days
# Experimental: Total RNA was extracted using RNeasy® Plus Mini Kit (QIAGEN, #74134). An iScript Reverse Transcription Supermix (Bio-Rad, #1708841) was used for the first-strand cDNA synthesis with 1 μg total RNA. Real-time PCR was performed using SYBR™ Select Master Mix (Thermo Fisher, #4472908) with gene-specific primers (mouse/16, forward 5′-[…]-3′, reverse 5′-[…]-3′; mouse//1b, forward 5′-[…]-3′, reverse 5′-[…]-3′; mouse Cxcl1, forward 5′-[…]-3′, reverse 5′-[…]-3′; mouse Ifnb, forward 5′-[…]-3′, reverse 5′-[…]-3′; mouse Ccl5, forward 5′-[…]-3′, reverse 5′-[…]-3′; mouse Cxcl10, forward 5′-[…]-3′, reverse 5′-[…]-3′; mouse Actb, forward 5′-[…]-3′, reverse 5′-[…]-3′; human IL6, forward 5′-[…]-3′, reverse 5′-[…]-3′; human IL1B, forward 5′-[…]-3′, reverse 5′-[…]-3′; human CXCL1, forward 5′-[…]-3′, reverse 5′-[…]-3′; human GAPDH, forward 5′-[…]-3′, reverse 5′-[…]-3′). Relative mRNA levels were calculated using the […]. Mouse Actb and human GAPDH were used as endogenous controls for mouse and human samples, respectively.
# Tumor cells were treated with olaparib or DMSO vehicle control for two days. To assess IFNβ production by tumor cells, cell culture supernatants were harvested and subjected to centrifugation at 1,500×g for 10 min at 4° C. to remove floating cells and debris. IFNβ was then detected via mouse IFNβ ELISA Kit (Thermo Fisher, #424001) according to manufacturer's instructions.
SMILES,"BP-sgSTING tumor growth ([1]; DMXAA 10 mg/kg i.p. weekly, FIG. 11H)","BP-sgSTING tumor growth ([1]; DMXAA 10 mg/kg intratumoral one dose per week, FIG. 12B)","IFNB, Ccl5 and Cxcl10 in BP-sgSTING cells ([2]; BP-sgSTING cells, FIG. 11D-F)","pro-inflammatory cytokines (Ifnb, Ccl5 and Cxcl10) in BP tumor cells ([2]; control medium or naive BMDM-CM, FIG. 6E)"
"Cc1ccc2c(=O)c3cccc(CC(=O)O)c3oc2c1C [DMXAA, 5,6-dimethyl-xanthenone-4-acetic acid]",no significant impact,completely refractory,,
O=C(c1cc(Cc2n[nH]c(=O)c3ccccc23)ccc1F)N1CCN(C(=O)C2CC2)CC1 [olaparib],,,failed to up-regulate,marked up-regulation
